Test results: PMC3871589, “Evaluation of STAT3 Signaling in ALDH+ and ALDH+/CD44+/CD24− Subpopulations of Breast Cancer Cells” (PLoS ONE, 2013)

Tests used:
Format in all cases: cell-based, human
[1] = system: ALDH+ subpopulations of SK-BR-3, MDA-MB-231, and SUM159; assay: Tumorsphere formation, ALDH+ subpopulations; conditions: 2.5–10 µmol/L, 10 to 15 days
Method: ALDH^+ and ALDH^+/CD44^+/CD24^− cells were plated as single cells in ultra-low attachment six-well plates at a density of 250, 500, 1000 or 50,000 viable cells/well as previously described. On the second day after seeding, the ALDH^+ cancer cells were treated with 2.5–10 µmol/L of LLL12 or Stattic. For tumorsphere forming capacity assay, ALDH^+ or ALDH^− cells were plated as single cells in ultra-low attachment six-well plates at a density of 250, 500 or 1000 viable cells/well. Tumorsphere growth was observed under a microscope 10 to 15 days later.

[2] = system: ALDH+ subpopulation in MDA-MB-231, SUM159, and SK-BR3 cancer cells; assay: ALDEFLUOR assay, percentage of ALDH+ subpopulation; conditions: un-separated MDA-MB-231, SUM159, SK-BR3; LLL12 5 µmol/L or Stattic 10 µM, 24 hours
Method: (§1) The ALDEFLUOR kit (StemCell Technologies) was used to isolate the population with high ALDH enzymatic activity as previously described. Briefly, cells were trypsinized to single cells using 0.05% trypsin and subsequently suspended in ALDEFLUOR assay buffer containing ALDH substrate (BAAA, 1 µmol/l per 1×10^6 cells) and then incubated for 40 minutes at 37°C. For each sample, an aliquot of cells was stained under identical conditions with 15 mmol/L diethylaminobenzaldehyde (DEAB), a specific ALDH inhibitor, as an ALDH^− control. Anti-human PE-CD24 and PE-Cy5-CD44 antibody (BioLegend) were used for CD44/CD24 identification and to separate ALDH^+/CD44^+/CD24^− and ALDH^−/CD44^+/CD24^+ cells when combined with ALDH staining. Analysis was performed using a FACStarPLUS (Becton Dickinion) flow cytometer. To assess the effect of STAT3 inhibitors on the subpopulation of ALDH^+ cells, un-separated breast cancer cells were treated with 5 µmol/L of LLL12 or 10 µmol/L Stattic for 24 hours prior to performing the ALDEFLUOR assay.

[3] = system: ALDH+ subpopulation from MDA-MB-231, SUM159, and SK-BR3 cells; assay: MTT cell viability assay, ALDH+ subpopulation; conditions: 1 to 10 µmol/L 72 hours, ShRNA 48 hours
Method: (§2) The breast cancer cells were seeded in 96-well plates (3,000 cells/well) in triplicates in a serum-free mammary epithelial basal medium. The following day, cancer cells were treated with 1 to 10 µmol/L of LLL12 or Stattic for 72 hours, STAT3 ShRNA or control GFP shRNA lentivirus (CTL ShRNA) for 48 hours. MTT (Thiazolyl Blue Tetrazolium Bromide, Sigma-Aldrich) assay was used to determine the cell viability.

ALDH− cells = assay: MTT cell viability assay, ALDH− subpopulation; conditions: Figure S4
Method: as §2

[4] = system: STAT3 phosphorylation (Y705); assay: Western blot of STAT3 phosphorylation in ALDH+ cells; conditions: LLL12 5 µmol/L or Stattic 10 µmol/L 24 hours, ShRNA 48 hours then puromycin
Method: as §1
After sorting by flow cytometry, ALDH^+ and ALDH^+/CD44^+/CD24^− stem-like cells were cultured in serum-free stem cell medium in ultra-low attachment six-well plates (Corning) to maintain cancer stem cell characteristics. […]

ERK1/2 phosphorylation = ERK1/2 phosphorylation in ALDH+ cells; conditions: ALDH+ breast cancer stem-like cells; 10 µmol/L, 24 hours
Method: After sorting by flow cytometry, ALDH^+ and ALDH^+/CD44^+/CD24^− stem-like cells were cultured in serum-free stem cell medium in ultra-low attachment six-well plates (Corning) to maintain cancer stem cell characteristics. ALDH^−, ALDH^−/CD44^+/CD24^+cells and un-separated cells were cultured in regular medium and replaced with identical stem cell medium for three days before being harvested. To assess the effects of STAT3 inhibitors, ALDH^+ and ALDH^+/CD44^+/CD24^− subpopulations of breast cancer cells were treated with LLL12 (5 µmol/L) of or static (10 µmol/L) for 24 hours. STAT3, or control GFP shRNA lentivirus (CTL ShRNA) was introduced into ALDH^+ breast cancer stem-like cells for 48 hours, then followed by selection with puromycin (0.2 µg/ml) for 72 hours. Antibodies (Cell Signaling Tech.) against phospho-specific STAT3 (Tyrosine 705) (P-STAT3, Y705), ERK1/2 (Threonine 202/Tyrosine 204), cleaved Poly (ADP-ribose) polymerase (PARP), ALDH1, cleaved caspase-3, and GAPDH were used for western blots.

## O=[N+]([O-])c1ccc2c(c1)S(=O)(=O)C=C2 [Stattic, reference compound]
[1]
  tumorsphere formation: suppress
[2]
  ALDH+ subpopulation (percentage): decreased
[3]
  cell viability of the ALDH+ subpopulation: inhibit
ALDH− cells
  effects against the ALDH− cells (cell viability): some inhibitory effects
[4]
  STAT3 phosphorylation in ALDH+ cells: reduced
ERK1/2 phosphorylation
  ERK1/2 phosphorylation: not
